The source made the active and inactive calls. The rule behind the calls is not given here.
Key:
[1] = target: Glycogen synthase kinase-3 beta (Homo sapiens) (UniProt P49841); assay: Inhibition of wild-type human full length GSK3B (M1 to T433 residues) expressed in mammalian expression system assessed as residual activity at 1 uM by Kinomescan method relative to control
[2] = test system: HL-60; assay: Cytotoxicity against human HL-60 cells assessed as reduction in cell viability after 48 hrs by MTT assay; assay type: functional, cell-based; settings: HL-60, 48 h
[3] = target: Tyrosine-protein kinase JAK1 (Homo sapiens) (UniProt P23458); assay: Inhibition of wild-type human partial length JAK1 JH2 pseudokinase domain (R537 to D855 residues) expressed in mammalian expression system assessed as residual activity at 1 uM by Kinomescan method relative to control
[4] = target: T1, Sphingosine kinase 2 (Homo sapiens) (UniProt Q9NRA0); assay: Binding affinity to SphK2 in HEK293 cells assessed as induction of thermal stabilization at 1 uM and 48.8 to 68.2 degreeC by CETSA-based Western blot analysis; assay type: cell-based
T1 sequence (whole entry): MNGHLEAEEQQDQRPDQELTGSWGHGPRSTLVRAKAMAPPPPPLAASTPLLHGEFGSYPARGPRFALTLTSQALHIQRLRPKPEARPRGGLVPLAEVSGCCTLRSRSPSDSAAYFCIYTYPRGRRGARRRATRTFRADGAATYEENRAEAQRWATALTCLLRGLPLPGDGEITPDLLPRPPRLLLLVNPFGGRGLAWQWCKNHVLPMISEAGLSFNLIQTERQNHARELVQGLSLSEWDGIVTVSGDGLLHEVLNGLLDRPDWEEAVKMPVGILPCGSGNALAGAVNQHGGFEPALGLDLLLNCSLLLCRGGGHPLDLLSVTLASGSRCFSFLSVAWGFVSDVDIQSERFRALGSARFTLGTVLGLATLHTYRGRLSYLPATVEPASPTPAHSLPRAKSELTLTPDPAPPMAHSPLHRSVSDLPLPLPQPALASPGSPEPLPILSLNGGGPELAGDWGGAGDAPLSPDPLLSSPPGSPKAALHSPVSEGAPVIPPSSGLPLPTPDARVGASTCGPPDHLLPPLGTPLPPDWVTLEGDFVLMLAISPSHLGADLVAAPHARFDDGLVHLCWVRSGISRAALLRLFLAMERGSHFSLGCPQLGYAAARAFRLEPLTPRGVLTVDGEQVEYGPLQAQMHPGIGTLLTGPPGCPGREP

[5] = target: Sphingosine kinase 1 (Homo sapiens, UniProt Q9NYA1); assay: Binding affinity to SphK1 in HEK293 cells assessed as induction of thermal stabilization at 1 uM and 51 to 63.2 degreeC by CETSA-based Western blot analysis; assay type: cell-based
[6] = target: Cyclin-dependent kinase 1 (Homo sapiens) (UniProt P06493); assay: Activation of CDK1 in human HL-60 cells assessed as activation of caspase 7 at 300 nM after 24 hrs by Western blot analysis; assay type: cell-based; settings: filed as activator
[7] = target: T2, Sphingosine kinase 2 (Homo sapiens, UniProt Q9NRA0); assay: Binding affinity to SphK2 in HEK293 cells assessed as direct target engagement incubated for 24 hrs followed by thermal denaturation at 61 degreeC by ITDRF-CETSA assay; assay type: cell-based
T2 sequence (Q9NRA0 whole entry): T1 sequence (whole entry)

[8] = target: Tubulin beta; assay: Binding affinity to beta tubulin in HEK293 cells assessed as disruption of microtubule polymerization by ITDRF-CETSA assay; assay type: cell-based, Homo sapiens
[9] = target: Cyclin-dependent kinase 1 (Homo sapiens) (UniProt P06493); assay: Activation of CDK1 in human HL-60 cells assessed as induction of Bcl2 phosphorylation at Ser70 residue at 300 nM after 24 hrs by Western blot analysis; assay type: cell-based; settings: filed as activator
[10] = target: Cyclin-dependent kinase 1 (Homo sapiens) (UniProt P06493); assay: Activation of CDK1 in human HL60/VCR cells assessed as activation of caspase 7 at 300 nM after 24 hrs by Western blot analysis; assay type: cell-based; settings: filed as activator
[11] = target: Cyclin-dependent kinase 1 (Homo sapiens) (UniProt P06493); assay: Activation of CDK1 in human HL-60 cells assessed as activation of caspase 7 at 300 nM after 24 hrs in presence of Ro-3306 by Western blot analysis; assay type: cell-based
[12] = test system: MLL-AF9; assay: Antitumor activity against human MLL-AF9 xenografted in sub-lethal irradiated C57BL/6J mouse assessed as increase in mouse survival at 1 to 5 mg/kg administered every day; assay type: functional, organism-based; settings: dose mg/kg 1-5
[13] = Effect on hematopoiesis in sub-lethal irradiated C57BL/6J mouse xenografted with […] MLL-AF9 cells assessed as CD45.1+/CD34 cells in bone marrow at 1 mg/kg measured after 6 weeks by flow cytometry analysis (reference value: 93 %); assay type: ADME, organism-based; settings: in vivo, 1008 h
[14] = Effect on hematopoiesis in sub-lethal irradiated C57BL/6J mouse xenografted with […] MLL-AF9 cells assessed as CD45.1+/CD34 cells in bone marrow at 2.5 mg/kg measured after 6 weeks by flow cytometry analysis (reference value: 93 %); assay type: ADME, organism-based; settings: in vivo, 1008 h
[15] = Effect on hematopoiesis in sub-lethal irradiated C57BL/6J mouse xenografted with […] MLL-AF9 cells assessed as CD45.1+/CD34 cells in bone marrow at 5 mg/kg measured after 6 weeks by flow cytometry analysis (reference value: 93 %); assay type: ADME, organism-based; settings: in vivo, 1008 h
[16] = Effect on hematopoiesis in sub-lethal irradiated C57BL/6J mouse xenografted with […] MLL-AF9 cells assessed as CD45.1+/CD34 cells in spleen at 1 mg/kg measured after 6 weeks by flow cytometry analysis (reference value: 90 %); assay type: ADME, organism-based; settings: in vivo, 1008 h
[17] = Effect on hematopoiesis in sub-lethal irradiated C57BL/6J mouse xenografted with […] MLL-AF9 cells assessed as CD45.1+/CD34 cells in spleen at 2.5 mg/kg measured after 6 weeks by flow cytometry analysis (reference value: 90 %); assay type: ADME, organism-based; settings: in vivo, 1008 h
[18] = Effect on hematopoiesis in sub-lethal irradiated C57BL/6J mouse xenografted with […] MLL-AF9 cells assessed as CD45.1+/CD34 cells in spleen at 5 mg/kg measured after 6 weeks by flow cytometry analysis (reference value: 90 %); assay type: ADME, organism-based; settings: in vivo, 1008 h
[19] = Antitumor activity against human MLL-AF9 xenografted in sub-lethal irradiated C57BL/6J mouse assessed as increase in mouse survival at 1 mg/kg administered every day relative to control; assay type: functional; settings: MLL-AF9, light or radiation study
[20] = Toxicity in sub-lethal irradiated C57BL/6J mouse xenografted with […] MLL-AF9 cells assessed as Hb level at 5 mg/kg measured after 2 weeks (reference value: 13.4 +/- 0.5 g/dl); assay type: organism-based; settings: in vivo, 336 h
[21] = Toxicity in sub-lethal irradiated C57BL/6J mouse xenografted with […] MLL-AF9 cells assessed as platelet level at 5 mg/kg measured after 2 weeks (reference value: 687 +/- 53 10^3/ml); assay type: organism-based; settings: in vivo, 336 h

Sequence of Cyclin-dependent kinase 1 (Homo sapiens) (P06493 whole entry, looked up): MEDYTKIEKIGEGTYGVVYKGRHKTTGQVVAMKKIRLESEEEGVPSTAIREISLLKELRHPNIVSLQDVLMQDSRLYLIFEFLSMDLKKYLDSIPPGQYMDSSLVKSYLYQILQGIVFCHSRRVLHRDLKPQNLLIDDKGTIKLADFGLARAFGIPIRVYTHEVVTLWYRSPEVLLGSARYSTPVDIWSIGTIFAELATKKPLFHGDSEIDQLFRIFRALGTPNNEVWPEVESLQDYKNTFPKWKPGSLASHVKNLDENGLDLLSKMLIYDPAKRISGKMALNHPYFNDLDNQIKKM
Sequence of Tyrosine-protein kinase JAK1 (Homo sapiens) (P23458 whole entry, the tested form may be a part): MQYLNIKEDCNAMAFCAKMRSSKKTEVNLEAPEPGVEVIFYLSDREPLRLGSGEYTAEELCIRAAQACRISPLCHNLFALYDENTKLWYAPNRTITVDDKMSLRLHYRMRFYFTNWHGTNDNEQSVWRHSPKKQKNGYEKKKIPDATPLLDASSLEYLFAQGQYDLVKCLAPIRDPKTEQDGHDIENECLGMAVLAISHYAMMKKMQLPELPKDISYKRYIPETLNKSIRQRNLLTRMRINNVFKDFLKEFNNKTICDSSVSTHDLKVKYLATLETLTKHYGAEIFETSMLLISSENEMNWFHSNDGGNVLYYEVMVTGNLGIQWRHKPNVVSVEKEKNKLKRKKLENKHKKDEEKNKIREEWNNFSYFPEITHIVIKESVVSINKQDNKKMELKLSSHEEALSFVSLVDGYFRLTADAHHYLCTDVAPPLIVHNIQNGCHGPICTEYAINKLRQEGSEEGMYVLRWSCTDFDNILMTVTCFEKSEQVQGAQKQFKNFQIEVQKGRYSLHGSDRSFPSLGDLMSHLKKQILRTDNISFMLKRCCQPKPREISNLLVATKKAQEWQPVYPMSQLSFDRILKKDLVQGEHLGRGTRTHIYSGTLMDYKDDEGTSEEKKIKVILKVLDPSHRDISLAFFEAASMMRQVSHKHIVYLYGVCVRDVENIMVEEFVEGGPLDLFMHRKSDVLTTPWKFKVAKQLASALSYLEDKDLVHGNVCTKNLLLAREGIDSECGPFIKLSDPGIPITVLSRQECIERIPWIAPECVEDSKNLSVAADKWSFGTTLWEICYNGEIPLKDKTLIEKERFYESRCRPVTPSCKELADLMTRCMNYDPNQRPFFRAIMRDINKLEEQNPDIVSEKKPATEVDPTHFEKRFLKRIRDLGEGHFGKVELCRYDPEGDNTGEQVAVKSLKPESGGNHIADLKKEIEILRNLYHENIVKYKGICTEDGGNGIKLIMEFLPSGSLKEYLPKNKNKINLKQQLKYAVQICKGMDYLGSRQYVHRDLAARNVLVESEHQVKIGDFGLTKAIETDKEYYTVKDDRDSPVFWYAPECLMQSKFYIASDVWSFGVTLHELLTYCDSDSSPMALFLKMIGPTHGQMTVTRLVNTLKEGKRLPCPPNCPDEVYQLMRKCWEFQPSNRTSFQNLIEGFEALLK
Sequence of Glycogen synthase kinase-3 beta (Homo sapiens) (P49841 whole entry, looked up, the tested form may be a part): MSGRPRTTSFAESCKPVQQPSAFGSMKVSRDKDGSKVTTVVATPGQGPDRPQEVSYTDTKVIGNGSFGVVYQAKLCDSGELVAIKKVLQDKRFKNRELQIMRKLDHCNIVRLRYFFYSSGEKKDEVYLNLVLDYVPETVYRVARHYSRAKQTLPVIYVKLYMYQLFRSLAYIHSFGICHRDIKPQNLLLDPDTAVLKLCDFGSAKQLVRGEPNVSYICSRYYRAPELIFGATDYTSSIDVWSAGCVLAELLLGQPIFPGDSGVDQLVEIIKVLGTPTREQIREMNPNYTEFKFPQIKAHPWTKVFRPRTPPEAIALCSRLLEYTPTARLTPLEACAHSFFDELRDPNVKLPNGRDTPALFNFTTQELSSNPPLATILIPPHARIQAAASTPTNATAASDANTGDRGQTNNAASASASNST
Sequence of Sphingosine kinase 1 (Q9NYA1 whole entry): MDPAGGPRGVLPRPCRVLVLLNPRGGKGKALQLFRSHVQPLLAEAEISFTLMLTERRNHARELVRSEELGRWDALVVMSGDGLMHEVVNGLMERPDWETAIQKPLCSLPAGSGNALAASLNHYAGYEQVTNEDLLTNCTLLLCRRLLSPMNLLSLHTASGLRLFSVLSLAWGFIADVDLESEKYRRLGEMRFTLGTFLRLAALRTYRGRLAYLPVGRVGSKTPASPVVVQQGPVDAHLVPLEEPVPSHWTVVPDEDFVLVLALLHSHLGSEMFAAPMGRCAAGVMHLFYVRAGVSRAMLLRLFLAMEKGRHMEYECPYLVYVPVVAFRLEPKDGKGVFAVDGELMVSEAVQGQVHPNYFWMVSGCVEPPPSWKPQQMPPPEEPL

In the case of `COc1ccc(Nc2nc(N)c(C(=O)c3ccc(OC)c(OC)c3)s2)cc1`, the Activity [1] is reported as 27%, the IC50 [2] is reported as 22 nM and the Activity [3] is reported as 5.4%. The Activity [4] was “Active”, the Activity [5] was “Active” and the Activity [6] was “Active”. The IC50 [7] was 60 nM, the IC50 [8] was 25 nM and the Activity [9] was “Active”. The Activity [10] was “Active”, the Activity [11] was “inactive” and the Activity [12] was “Active”. For the same compound, the Activity [13] was 1%, the Activity [14] was 7% and the Activity [15] was 7%. It also gave an Activity [16] of 8%, an Activity [17] of 6% and an Activity [18] of 7%. The survival at 1 mg/kg [19] was 100%, the Activity [20] was 12 g/dL and the Activity [21] was 1089 10^3/ml.
